Assay results taken from ChEMBL document CHEMBL1201862, “PubChem BioAssay data set” (2004).
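Grown in 96-well plates, cells were treated for 48 hours with each compound at five concentrations. Insufficient inhibition: endpoint recorded as highest concentration tested. At the GI50, growth is halved.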 Active and inactive are the calls of the source. Rule as the data show it: active = GI50 up to about 1.1 µM and inactive = higher.

How the values were obtained:
Assay in all cases: NCI anticancer screen, dose series, 48 h
SK-MEL-5 = test system: SK-MEL-5
SF-295 = test system: SF-295
SR = test system: SR
SN12C = test system: SN12C
TK-10 = test system: TK-10
U-251 = test system: U-251
CCRF-CEM = test system: CCRF-CEM
OVCAR-4 = test system: OVCAR-4
HOP-92 = test system: HOP-92
786-0 = test system: 786-0
OVCAR-3 = test system: OVCAR-3
UO-31 = test system: UO-31
RPMI-8226 = test system: RPMI-8226
UACC-62 = test system: UACC-62
HCC 2998 = test system: HCC 2998
MCF7 = test system: MCF7
NCI-H460 = test system: NCI-H460
SW-620 = test system: SW-620
ACHN = test system: ACHN
A498 = test system: A498

Structure (SMILES) | GI50 (SK-MEL-5) | GI50 (SF-295) | GI50 (SR) | GI50 (SN12C) | GI50 (TK-10) | GI50 (U-251) | GI50 (CCRF-CEM) | GI50 (OVCAR-4) | GI50 (HOP-92) | GI50 (786-0) | GI50 (OVCAR-3) | GI50 (UO-31) | GI50 (RPMI-8226) | GI50 (UACC-62) | GI50 (HCC 2998) | GI50 (MCF7) | GI50 (NCI-H460) | GI50 (SW-620) | GI50 (ACHN) | GI50 (A498)
O=C1CC(=O)NC(NN2C(=O)/C(=C/c3ccccc3)N=C2c2ccccc2)=N1 | > 100 µM (inactive) | > 100 µM (inactive) | > 100 µM (inactive) | > 100 µM (inactive) | > 100 µM (inactive) | > 100 µM (inactive) | > 100 µM (inactive) | > 100 µM (inactive) | > 100 µM (inactive) | > 100 µM (inactive) | > 100 µM (inactive) | 32.9 µM (inactive) | > 100 µM (inactive) | 26.7 µM (inactive) | > 100 µM (inactive) | > 100 µM (inactive) | > 100 µM (inactive) | > 100 µM (inactive) | > 100 µM (inactive) | > 100 µM (inactive)
O=C(C(=O)n1ccc2ccccc21)n1ccc2ccccc21 | > 100 µM (inactive) | 37.6 µM (inactive) | 40.1 µM (inactive) | > 100 µM (inactive) | > 100 µM (inactive) | 63.4 µM (inactive) | 38.7 µM (inactive) | 29 µM (inactive) | 34 µM (inactive) | 91.6 µM (inactive) | > 100 µM (inactive) | > 100 µM (inactive) | > 100 µM (inactive) | 57.9 µM (inactive) | > 100 µM (inactive) | > 100 µM (inactive) | 36.6 µM (inactive) | > 100 µM (inactive) | > 100 µM (inactive) | > 100 µM (inactive)
CNC(=O)N(C)/N=N/CCCl | > 100 µM (inactive) | > 100 µM (inactive) | > 100 µM (inactive) | > 100 µM (inactive) | > 100 µM (inactive) | > 100 µM (inactive) | > 100 µM (inactive) | > 100 µM (inactive) | > 100 µM (inactive) | > 100 µM (inactive) | > 100 µM (inactive) | > 100 µM (inactive) | > 100 µM (inactive) | > 100 µM (inactive) | > 100 µM (inactive) | > 100 µM (inactive) | > 100 µM (inactive) | > 100 µM (inactive) | > 100 µM (inactive) | > 100 µM (inactive)
CCc1ccccc1NNc1cc(=O)[nH]c(=O)[nH]1 | 17.3 µM (inactive) | 17.9 µM (inactive) | 30.5 µM (inactive) | 18.8 µM (inactive) | > 10 µM (inactive) | 17.4 µM (inactive) | 26.5 µM (inactive) | 20.3 µM (inactive) | 16.6 µM (inactive) | 16.6 µM (inactive) | 17.1 µM (inactive) | 17.2 µM (inactive) | 8.2 µM (inactive) | 19.6 µM (inactive) | 16.6 µM (inactive) | 19.4 µM (inactive) | 22.9 µM (inactive) | 18.6 µM (inactive) | 16.9 µM (inactive) | 21.2 µM (inactive)
C=C1C(=O)O[C@@H]2C[C@@]3(C)CCCC(=C)[C@@H]3C[C@H]12.C=C1C(=O)O[C@@H]2C[C@@]3(C)CCC[C@H](C)C3=C[C@H]12 | 1.6 µM (inactive) | 11.5 µM (inactive) | 0.494 µM (active) | 1.69 µM (inactive) | 2.88 µM (inactive) | 3.63 µM (inactive) | 1.51 µM (inactive) | 2.7 µM (inactive) | 1.9 µM (inactive) | 1.43 µM (inactive) | 1.61 µM (inactive) | 1.59 µM (inactive) | 1.12 µM (inactive) | 2.39 µM (inactive) | 5.85 µM (inactive) | 1.73 µM (inactive) | 3.75 µM (inactive) | 1.64 µM (inactive) | 2.55 µM (inactive) | 1.71 µM (inactive)
S=c1[nH]c(=S)c2cc(Sc3ccc4[nH]c(=S)[nH]c(=S)c4c3)ccc2[nH]1 | 46.9 µM (inactive) | 22 µM (inactive) | 17.1 µM (inactive) | 40 µM (inactive) | 25.1 µM (inactive) | 33 µM (inactive) | 25.6 µM (inactive) | 23.2 µM (inactive) | 32.3 µM (inactive) | 21.5 µM (inactive) | 36.1 µM (inactive) | 26.9 µM (inactive) | 17.7 µM (inactive) | 20 µM (inactive) | 37.3 µM (inactive) | 59.6 µM (inactive) | 45.5 µM (inactive) | 48.4 µM (inactive) | 35.2 µM (inactive) | 24.5 µM (inactive)
Nc1nc(OCC2CCCCC2)c2nc[nH]c2n1 | 15.2 µM (inactive) | 17.7 µM (inactive) | 6.85 µM (inactive) | 10.2 µM (inactive) | 7.35 µM (inactive) | 16.8 µM (inactive) | 11.2 µM (inactive) | 13.2 µM (inactive) | 10.3 µM (inactive) | 17 µM (inactive) | 9.25 µM (inactive) | 7.18 µM (inactive) | 11.1 µM (inactive) | 12.6 µM (inactive) | 17.5 µM (inactive) | 0.957 µM (active) | 8.38 µM (inactive) | 23.3 µM (inactive) | 1.3 µM (inactive) | 13.7 µM (inactive)
